In this assay the target is T1, 53BP1 tandem Tudor domain (TTD) (Homo sapiens, UniProt Q12888).
T1 construct: DEL screens targeting the tandem Tudor domain (TTD) of 53BP1; made in house
The experiment in a line: 53BP1 TR-FRET displacement assay. Type of assay: binding. To be noted: mean ± SD of at least three replicates. An excerpt:
In this work, we test the hypothesis that initializing a structure-based generative AI workflow with validated DEL screening data can rapidly identify novel, potent, and more drug-like compounds from an ultra-large virtual library, outperforming traditional hit-picking strategies. To do so, we present a DEL-driven, integrated virtual screening workflow that combines the HIDDEN GEM platform with the multi-billion-compound Enamine REAL Space (Figure 1). Using data from our recently published DEL screens targeting the tandem Tudor domain (TTD) of 53BP1,[8],[16],[27] we biased our generative structure-guided ML model to identify novel, commercially available compounds from the Enamine REAL Space. All purchased and off-DNA synthesized compounds were experimentally tested using a developed time-resolved fluorescence resonance energy transfer (TR-FRET) displacement assay. This workflow provides a rapid, cost-effective strategy for academic labs and small biotech companies to accelerate hit discovery using focused DEL libraries and to expand beyond the screened chemical space, which is particularly important for smaller-sized DELs.
Reagents, protein expression/purification, DEL production and screening, and TR-FRET screening protocols were previously reported.[16],[27] […]
[Compound], µM [Compound], µM [Compound], µM
[Compound], µM [Compound], µM
Figure S2. 53BP1 TR-FRET displacement assay dose-response curves for compounds identified from
HIDDEN GEM. Each data point represents the mean of three replicates (n=3), with error bars indicating standard
deviation. Dose-response curves were fitted using a four-parameter Hill equation. […]

IC50 data for 5 molecules are collected here from article doi:10.1101/2025.09.30.679600, “Expansion of DNA-Encoded Library Hits Using Generative Chemistry and Ultra-Large Compound Catalogs” (bioRxiv, 2025).

T1 sequence (Q12888 1484-1603 limits assumed): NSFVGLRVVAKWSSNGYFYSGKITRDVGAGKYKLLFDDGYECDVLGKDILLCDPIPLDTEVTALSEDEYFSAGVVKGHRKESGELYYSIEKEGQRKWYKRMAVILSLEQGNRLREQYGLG

`CN1CCN(c2ccccc2NC(=O)c2cc3ccccc3[nH]2)CC1` [UNC10413788A] yielded an IC50 of 22 ± 3.6 µM.

In turn, `CN1CCC(Nc2ccccc2NC(=O)c2cccc(F)c2)CC1` [UNC10413800A] showed an IC50 of 54 ± 8.5 µM.

Take `COc1ccc(C(CNC2=NS(=O)(=O)c3ccccc32)N2CCCC2)cc1` (centres unmarked) [UNC10413807A]: the IC50 is 43 ± 0.44 µM.

The molecule `CCN1CCN(c2ccccc2NC(=O)c2cc(O)c3ccccc3c2)CC1` [UNC10414641A] yielded a concentration for half-maximal inhibition (IC50) of 58 ± 10 µM.

With `Cc1ccc(C(CNC2=NS(=O)(=O)c3ccccc32)N2CCCC2)cc1` (centres unmarked) [UNC10414645A], the IC50 amounted to 34 ± 3 µM.
